Results taken from publication PMC10829512, “Transport of metformin metabolites by guanidinium exporters of the small multidrug resistance family” (The Journal of General Physiology, 2024).

Key:
Gdx-Clo = molecular target: T1, Gdx-Clo (Clostridiales bacterium oral taxon 876, UniProt U2EQ00); assay: SSM electrophysiology of Gdx-Clo proteoliposomes; format: biochemical, Clostridales oral taxon 876; details: 2 mM substrate
T1 sequence (U2EQ00 1-105): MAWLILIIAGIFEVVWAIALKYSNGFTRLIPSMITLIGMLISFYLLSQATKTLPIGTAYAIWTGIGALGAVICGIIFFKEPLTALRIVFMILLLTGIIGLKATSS
Method: (§1) Gdx-Clo ([Kermani et al., 2018]), Gdx-Eco ([Kermani et al., 2018]), EmrE ([Kermani et al., 2022]), and Gdx-pAmi ([Martinez-Vaz et al., 2022]) construct design and purification have been described previously. […] Proteins were overexpressed in C41(DE3). Expression was induced by the addition of 0.2 mM IPTG for 3 h. Cells were lysed and extracted with 2% n-decyl-β-D-maltoside (DM) for 2 h. After pelleting insoluble cell debris, proteins were purified using cobalt affinity resin. Wash buffer contained 25 mM Tris, pH 8.5, 150 mM NaCl, and 5 mM DM. For Gdx-pAmi, NaCl concentration was increased to 500 mM NaCl. The affinity column was washed with wash buffer, then wash buffer with 10 mM imidazole, prior to elution with wash buffer with 400 mM imidazole. For Gdx-Clo and Gdx-Eco, histidine tags were cleaved with LysC (200 ng/mg of protein; 2 h at room temperature; New England Biolabs), and for all others, histidine tags were cleaved with thrombin (1 U/mg of protein, overnight at room temperature; MilliporeSigma). Proteins were further purified using a gel filtration Superdex200 column (Cytiva) equilibrated with 100 mM NaCl, 10 mM N-2-hydroxyethylpiperazine-N′-2-ethanesulfonic acid (HEPES), pH 7.5, and 5 mM DM. Purified proteins were stored at 4°C for up to 5 days before detergent binding assays. To prepare proteoliposomes for electrophysiology assays, purified protein was mixed with E. coli polar lipid extract (10 mg/ml; Avanti Polar Lipids) solubilized with 35 mM 3-[(3-cholamidopropyl)dimethylammonio]-1-propanesulfonate (CHAPS) at a protein to lipid ratio of 40 μg SMR transporter: mg lipid (1:370 protein:lipid molar ratio) prior to detergent removal by dialysis. For preparations that included Fluc-Bpe, liposomes were reconstituted with a molar ratio of 0.3 Fluc-Bpe:1 SMRGdx: 5920 lipid (1 μg Fluc-Bpe and ∼2.5 μg SMRGdx per mg lipid). For liposome transport assays, proteoliposomes were prepared similarly, except that a 2:1 mixture of 1-palmitoyl, 2-oleoylphosphatidylethanolamine (POPE) and 1-palmitoyl, 2-oleoylphosphatidylglycerol (POPG) (10 mg/ml; Avanti Polar Lipids) was used with 0.2 μg protein/mg lipid. Proteoliposomes were stored at −80°C until use.
(§2) SSM experiments were performed using SURFE^2R N1 instrument (Nanion Technologies). Sensors were prepared with a 1,2-diphytanoyl-sn-glycero-3-phosphocholine (DPhPC) lipid monolayer according to published protocols ([Bazzone et al., 2017]). Each sensor’s capacitance and conductance were verified before use (<80 nF capacitance, <50 nS conductance) using Nanion software protocols. Proteoliposome stock was diluted 1:25 in assay buffer (100 mM KCl, 100 mM KPO4, pH 7.5) prior to adsorption to the DPhPC monolayer. For substrate screening experiments, reference substrate samples (Gdm^+ for SMRGdx, and TPA^+ for SMRQac) were checked periodically to test for the stability of the sensor; if the current amplitude of the reference compound differed by >10% on one sensor, it indicated the desorption of liposomes, and the sensor was not used for further experiments. For every SSM electrophysiology experiment, we used the same general solution exchange protocol: after 2 s perfusion with a non-activating solution, we perfused substrate-containing buffer for 2 s and then returned to the equilibrium condition with a 4 s perfusion of non-activating buffer. For experiments with the S104C/A70C crosslinked variant, reducing conditions were established by the addition of 2.5 mM tris(2-carboxyethyl)phosphine (TCEP) to the activating and non-activating buffers.
(§3) We screened a series of metformin metabolites for transport using SSM electrophysiology (Fig. 2, A and B).

Gdx-Eco = Gdx-Eco (Escherichia coli, UniProt P69937); assay: SSM electrophysiology of Gdx-Eco proteoliposomes; format: biochemical; details: 2 mM substrate
Method: as §1, §2, §3

Gdx-pAmi = assay: SSM electrophysiology of Gdx-pAmi proteoliposomes; format: biochemical, Aminobacter sp. MET; details: 2 mM substrate
Method: as §1, §2, §3

Gdx-pPro = Gdx-pPro (Citrobacter freundii, UniProt O69279); details: 2 mM substrate
N=C(N)N = assay: purified protein, by the assay type; details: other: Gdx-pPro, pH 7.5, mean ± SEM

Chain of Gdx-pPro (O69279 2-105): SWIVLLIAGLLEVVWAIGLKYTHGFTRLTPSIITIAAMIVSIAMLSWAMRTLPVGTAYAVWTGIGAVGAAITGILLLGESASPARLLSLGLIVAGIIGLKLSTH
Chain of Gdx-Eco (P69937 whole entry): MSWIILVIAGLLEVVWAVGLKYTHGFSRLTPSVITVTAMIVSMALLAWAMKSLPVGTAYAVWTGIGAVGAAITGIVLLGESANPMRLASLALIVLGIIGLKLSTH

Molecule | Transport currents in substrate screen (Gdx-Clo) | Transport currents in substrate screen (Gdx-Eco) | Transport currents in substrate screen (Gdx-pAmi) | Transport currents in substrate screen (Gdx-pPro) | Km (N=C(N)N) [µM]
CN(C)C(=N)N=C(N)N [Metformin, metformin] | currents barely above the detectable limit | currents barely above the detectable limit | currents barely above the detectable limit | currents barely above the detectable limit | –
Gdx-pPro (Citrobacter freundii) | – | – | – | – | 2900 ± 500
CNC(=N)NC(=N)N [methylbiguanide] | – | transported | transported | transported | –
CCCCNC(=N)NC(=N)N [buformin] | – | transported | transported | transported | –
